Test [1] concerns the target T1, Plk1 (Homo sapiens, UniProt P53350). Briefly: Select Screen Kinase Assay (Invitrogen Kinase Profiling Service). The class given is biochemical. As to conditions: tested at Invitrogen; read-out: IC50 values against Plk1 activity. Here is the method: Selected compound of the present invention were tested in the Select Screen™ Kinase Profiling Service (Invitrogen Corporation, Madison, WI 53719, USA) against Plk1, under conditions of non-disclosure, non-dissemination and non-use.
In brief, compounds 1 and 13 (see Table 1) were tested at Invitrogen, and IC50 values against Plk1 activity of about 20 nM were obtained in each case.

The subject of another test is HCT 116. Briefly: SRB cell proliferation assay, HCT 116. The class given is cell-based. The conditions noted are these: Homo sapiens. In outline:
(§1)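 Cells plated 24 h before compound, then exposed 72 h over a concentration range. TCA-fixed, sulforhodamine B-stained, bound dye read at OD520; IC50 derived from % inhibition of proliferation versus DMSO-treated cells.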

The subject of the next test is HT-29. Briefly: SRB cell proliferation assay, HT-29. The class given is cell-based. The conditions noted are these: Homo sapiens. In outline:
as §1

A further test has as its system IMR-90. Briefly: SRB cell proliferation assay, IMR-90. The class given is cell-based. As to conditions: Homo sapiens. The method, boiled down:
as §1

The test system of the next test is A549. Briefly: SRB cell proliferation assay, A549. It is filed as cell-based. As to conditions: Homo sapiens, 18-Cell Line Panel, lung. The procedure:
(§2) Cells were exposed to the test compounds at various concentrations appropriate to determine an IC50 for 72 hours. Cell proliferation was measured using the SRB assay according to Shekan et al (J Natl Cancer Inst (1990) 82, 1107-112) in order to estimate the IC50 values shown in Table 3. Briefly, cells were plated in 96 well dishes 24 hours prior to compound addition at the densities specified in Table 5.1. The assay was terminated with the addition of cold TCA to a final concentration of 10% after growth medium has been removed and the plates were incubated over night at 4°C. The plates were then washed 5 times with water and 100µl of a Sulforhodamine B solution (4%) was added to each well. The plates were then incubated for 10 minutes at room temperature before removal of unbound dye by washing with 1% acetic acid. The bound dye was solubilised with 10 mM Trizma base and the absorbance read at OD520.
(§3) Table 8.1: 18-Cell Line Panel

The next test relates to ACHN. Briefly: SRB cell proliferation assay, ACHN. It is filed as cell-based. As to conditions: Homo sapiens, 18-Cell Line Panel, kidney. The procedure:
as §2, §3

The next test relates to DU 145. Briefly: SRB cell proliferation assay, DU 145. The class given is cell-based. As to conditions: Homo sapiens, 18-Cell Line Panel, prostate, read-out: IC50 DU145. Here is the method: as §2, §3
The next test relates to MDA-MB-468. Briefly: SRB cell proliferation assay, MDA-MB-468. It is filed as cell-based. As to conditions: Homo sapiens, MDA-MB-468; 18-Cell Line Panel; breast. The procedure: as §2, §3
The subject of the next test is NCI-H460. Briefly: SRB cell proliferation assay, NCI-H460. The class given is cell-based. The conditions noted are these: Homo sapiens, 18-Cell Line Panel, NSCLC. The procedure: as §2, §3
The test system of the next test is OVCAR-3. Briefly: SRB cell proliferation assay, OVCAR-3. It is filed as cell-based. As to conditions: Homo sapiens, 18-Cell Line Panel, ovary. Here is the method:
as §2, §3

For another test, the system named is A-375. Briefly: SRB cell proliferation assay, A-375. As to conditions: Homo sapiens, 18-Cell Line Panel, melanoma. It is filed as cell-based. Here is the method: as §2, §3
The test system of a further test is SK-MEL-28. Briefly: SRB cell proliferation assay, SK-MEL-28. It is filed as cell-based. The conditions noted are these: Homo sapiens, 18-Cell Line Panel, melanoma. Here is the method: as §2, §3
Test [2] concerns the target T1, Plk1. Briefly: Cellular Plk1 kinase activity: nucleophosmin (B23) Ser4 phosphorylation in HCT116 cells (MSD electrochemiluminescence). It is filed as cell-based. More on the design: host or cells: HCT116. As to conditions: 100 ng/ml nocodazole, 4 hours after compound addition, read-out: Biochemical IC50 Nucleophosmin assay. The method, boiled down: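 HCT116 cells arrested with 100 ng/ml nocodazole for 20 h, then compound for 4 h before lysis. Nucleophosmin Ser4 phosphorylation quantified by MSD electrochemiluminescence with cross-reactive anti-phospho-Mek1/2 antibody; % inhibition relative to cells without nocodazole, IC50 derived.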

Where [3] appears, read: HCT-116, 18-Cell Line Panel, colon, read-out: IC50 HCT116.
[4] abbreviates: HCT-116, 72 h, 72 hours, SRB assay, read-out: CELLULAR IC50 HCT 116.
[5] abbreviates: HT-29, 18-Cell Line Panel, colon, read-out: IC50 HT-29.
The mark [6] stands for this setting: HT-29, 72 h, 72 hours, SRB assay, read-out: CELLULAR IC50 HT-29.
Where [7] appears, read: 18-Cell Line Panel, lung, read-out: IC50 IMR-90.
Setting [8] is: 72 hours, SRB assay, slow cycling cell line, read-out: CELLULAR IC50 IMR-90.

Where two headings read alike, the source gives them in different places.

Among the data in patent EP2112152A1, “Dihydropteridinones as Plk Inhibitors” (GPC Biotech AG, priority 2008, dated 2009) are IC50 values, retold here.

T1 sequence (P53350 whole entry, species assumed): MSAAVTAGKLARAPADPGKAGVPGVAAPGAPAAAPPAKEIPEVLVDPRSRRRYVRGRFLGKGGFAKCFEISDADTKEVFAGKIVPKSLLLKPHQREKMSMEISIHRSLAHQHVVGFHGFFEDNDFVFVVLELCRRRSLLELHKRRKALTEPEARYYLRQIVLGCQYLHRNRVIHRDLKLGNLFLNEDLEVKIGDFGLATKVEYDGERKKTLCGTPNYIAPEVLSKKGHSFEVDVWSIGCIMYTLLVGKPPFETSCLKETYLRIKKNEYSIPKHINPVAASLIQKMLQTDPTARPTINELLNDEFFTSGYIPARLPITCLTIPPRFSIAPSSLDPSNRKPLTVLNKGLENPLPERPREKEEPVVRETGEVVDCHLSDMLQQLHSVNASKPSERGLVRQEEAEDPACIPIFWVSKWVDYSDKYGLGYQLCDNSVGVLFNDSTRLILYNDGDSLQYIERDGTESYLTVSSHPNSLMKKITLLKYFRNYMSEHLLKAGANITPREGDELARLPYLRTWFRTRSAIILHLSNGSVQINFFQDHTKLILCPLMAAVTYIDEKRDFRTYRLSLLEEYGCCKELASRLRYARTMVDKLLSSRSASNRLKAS

As to `CCC1C(=O)N(C)c2cnc(Nc3ccc(C(=O)N[C@H]4CC[C@H](N5CCN(CC6CC6)CC5)CC4)cc3OC)nc2N1N(C)C` (relative stereo) [Compound 13, N-[trans-4-(4-Cyclopropylmethyl-piperazin-1-yl)-cyclohexyl]-4-(8-dimethylamino-7-ethyl-5-methyl-6-oxo-5,6,7,8-tetrahydro-pteridin-2-ylamino)-3-methoxy-benzamide], the IC50 – broadly, the concentration that gives 50% inhibition – was around 20 nM on Plk1 [1]; below 1000 nM in the test with HCT 116 (setting [3]); below 1000 nM with HCT 116 (setting [4]); below 1000 nM in the test with HT-29 (setting [5]); below 1000 nM in the test on HT-29 (setting [6]); above 1000 nM in the test with IMR-90 (setting [7]). Moreover, the half-maximal inhibitory concentration (IC50) with IMR-90 (setting [8]) is above 1000 nM; in the test with A549 it was below 1000 nM; with ACHN, below 1000 nM; with DU 145, below 1000 nM; with MDA-MB-468, above 1000 nM; with NCI-H460, below 1000 nM. Further, the IC50 was below 1000 nM in the test on OVCAR-3, below 1000 nM in the test on A-375, above 1000 nM in the test on SK-MEL-28 and below 100 nM on Plk1 [2].
Consider `CCC1C(=O)N(C)c2cnc(Nc3ccc(C(=O)NC4CCN(C)CC4)cc3OC)nc2N1N(C)C` (racemic) [Compound 1, 4-(8-Dimethylamino-7-ethyl-5-methyl-6-oxo-5,6,7,8-tetrahydro-pteridin-2-ylamino)-3-methoxy-N-(1-methyl-piperidin-4-yl)-benzamide], for which the IC50 on Plk1 [1] was around 20 nM; in the test with HCT 116 (setting [3]), below 1000 nM; in the test on HCT 116 (setting [4]) it was below 1000 nM; in the test with HT-29 (setting [5]), below 1000 nM; in the test with HT-29 (setting [6]) it was below 1000 nM; in the test with IMR-90 (setting [7]), above 1000 nM. In addition, the 50% inhibitory concentration (IC50) is above 1000 nM in the test on IMR-90 (setting [8]); below 1000 nM with A549; above 1000 nM in the test with ACHN; below 1000 nM in the test with DU 145; below 1000 nM in the test on MDA-MB-468; below 1000 nM in the test with NCI-H460. Further, the 50% inhibitory concentration (IC50) with OVCAR-3 is below 1000 nM; in the test with A-375, below 1000 nM; in the test with SK-MEL-28, above 1000 nM; at Plk1 [2], below 100 nM.
